# Laboratory results as given in patent US8952024B2, “Herbicidal pyrimidone derivatives” (E I du Pont de Nemours and Company, priority 2009, dated 2015).
# Key:
# Assay type in all cases: in vivo
# [1] = system: barnyardgrass (Echinochloa crus-galli); experiment: Test A pre-/postemergence plant response
# Source text: (§1) Seeds of barnyardgrass (Echinochloa crus-galli), large crabgrass (Digitaria sanguinalis), giant foxtail (Setaria faberii), morningglory (Ipomoea spp.), pigweed (Amaranthus retroflexus), velvetleaf (Abutilon theophrasti), wheat (Triticum aestivum) and corn (Zea mays) were planted into a blend of loam soil and sand and treated preemergence with a directed soil spray using test chemicals formulated in a non-phytotoxic solvent mixture which included a surfactant. At the same time these species were also treated with postemergence applications of test compounds formulated in the same manner.
# (§2) Plants ranged in height from two to ten cm and were in the one- to two-leaf stage for the postemergence treatment. Treated plants and untreated controls were maintained in a greenhouse for approximately ten days, after which time all treated plants were compared to untreated controls and visually evaluated for injury. Plant response ratings, summarized in Table A, are based on a 0 to 100 scale where 0 is no effect and 100 is complete control. A dash (-) response means no test result.
# [2] = system: giant foxtail (Setaria faberii); experiment: Test A pre-/postemergence plant response
# Source text: as §1, §2
# [3] = system: large crabgrass (Digitaria sanguinalis); experiment: Test A pre-/postemergence plant response
# Source text: as §1, §2
# [4] = system: pigweed (Amaranthus retroflexus); experiment: Test A pre-/postemergence plant response
# Source text: as §1, §2
# [5] = system: wheat (Triticum aestivum); experiment: Test A pre-/postemergence plant response
# Source text: as §1, §2
# corn (Zea mays) = experiment: Test A pre-/postemergence plant response
# Source text: as §1, §2
# [6] = system: morningglory (Ipomoea spp.); experiment: Test A pre-/postemergence plant response
# Source text: as §1, §2
# [7] = system: velvetleaf (Abutilon theophrasti); experiment: Test A pre-/postemergence plant response
# Source text: as §1, §2
# [8] = system: barnyardgrass (Echinochloa crus-galli); experiment: Test B flooded paddy test; conditions: for Plant response rating, Flood, Barnyardgrass: 250 g ai/ha, flooded paddy test, visual rating on 0 to 100 scale (0 no effect, 100 complete control) after 13 to 15 days; for Plant response rating, Barnyardgrass: Flood (flooded paddy test), 13 to 15 days; for Barnyardgrass plant response rating: Flood, 31 g ai/ha, scale 0 to 100 (0 no effect, 100 complete control)
# Source text: (§3) Plant species in the flooded paddy test consisted of rice (Oryza sativa), umbrella sedge (Cyperus difformis), ducksalad (Heteranthera limosa) and barnyardgrass (Echinochloa crus-galli) grown to the 2-leaf stage for testing. At the time of treatment, test pots were flooded with water to 3 cm above the soil surface, treated by application of test compounds directly to the paddy water, and then maintained at that water depth for the duration of the test.
# (§4) Treated plants and controls were maintained in a greenhouse for 13 to 15 days, after which time all treated plants were visually evaluated and compared to controls. Plant response ratings, summarized in Table B, are based on a scale of 0 to 100 where 0 is no effect and 100 is complete control. A dash (-) response means no test result.
# [9] = system: ducksalad (Heteranthera limosa); experiment: Test B flooded paddy test; conditions: for Plant response rating, Flood, Ducksalad: 250 g ai/ha, flooded paddy test, visual rating on 0 to 100 scale (0 no effect, 100 complete control) after 13 to 15 days; for Plant response rating, Ducksalad: Flood (flooded paddy test), 13 to 15 days; for Ducksalad plant response rating: Flood, 31 g ai/ha, scale 0 to 100 (0 no effect, 100 complete control)
# Source text: as §3, §4
# rice (Oryza sativa) = experiment: Test B flooded paddy test; conditions: for Plant response rating, Flood, Rice: 250 g ai/ha, flooded paddy test, visual rating on 0 to 100 scale (0 no effect, 100 complete control) after 13 to 15 days; for Plant response rating, Rice: Flood (flooded paddy test), 13 to 15 days; for Rice plant response rating: Flood, 31 g ai/ha, scale 0 to 100 (0 no effect, 100 complete control)
# Source text: as §3, §4
# [10] = system: umbrella sedge (Cyperus difformis); experiment: Test B flooded paddy test; conditions: for Plant response rating, Flood, Sedge, Umbrella: 250 g ai/ha, flooded paddy test, visual rating on 0 to 100 scale (0 no effect, 100 complete control) after 13 to 15 days; for Plant response rating, Sedge, Umbrella: Flood (flooded paddy test), 13 to 15 days; for Sedge, Umbrella plant response rating: Flood, 31 g ai/ha, scale 0 to 100 (0 no effect, 100 complete control)
# Source text: as §3, §4
# [11] = Postemergence, 125 g ai/ha, 0 to 100 scale where 0 is no effect and 100 is complete control
# [12] = Postemergence, 500 g ai/ha, visual injury, 0 to 100 scale (0 no effect, 100 complete control), approx. ten days
# [13] = Preemergence, 125 g ai/ha, 0 to 100 scale, 0 = no effect, 100 = complete control
# [14] = Preemergence, 500 g ai/ha, 0 to 100 scale, 0 = no effect, 100 = complete control
# [15] = 62 g ai/ha, scale of 0 to 100 where 0 is no effect and 100 is complete control
# [16] = Preemergence, 125 g ai/ha, 0 to 100 scale where 0 is no effect and 100 is complete control, approximately ten days
# [17] = Postemergence, 125 g ai/ha, visual injury, 0 to 100 scale (0 no effect, 100 complete control), approx. ten days
# [18] = 125 g ai/ha, scale 0 to 100, 0 is no effect, 100 is complete control
# [19] = Postemergence, 500 g ai/ha, 0 to 100 scale, 0 = no effect, 100 = complete control, approx. ten days
# [20] = Preemergence, 500 g ai/ha, visual injury, 0 to 100 scale (0 no effect, 100 complete control), approx. ten days
smiles,measurement,setting,value
O=C1CCCC(O)=C1C(=O)c1cnc(-c2cccc(Br)c2)n(C2CCCCC2)c1=O [Compound 206],"Plant response rating, Barnyardgrass",[1]; [11],90
same,Barnyardgrass plant response rating,[1]; [12],100
same,"Plant response rating, Barnyardgrass",[1]; [13],0
same,"Plant response rating, Barnyardgrass",[1]; [14],20
same,"Plant response rating, Foxtail, Giant",[2]; [11],50
same,"Foxtail, Giant plant response rating",[2]; [12],90
same,"Plant response rating, Foxtail, Giant",[2]; [13],0
same,"Plant response rating, Foxtail, Giant",[2]; [14],60
same,"Plant response rating, Crabgrass, Large",[3]; [11],60
same,"Crabgrass, Large plant response rating",[3]; [12],100
same,"Plant response rating, Crabgrass, Large",[3]; [13],10
same,"Plant response rating, Crabgrass, Large",[3]; [14],60
same,"Plant response rating, Pigweed",[4]; [11],90
same,Pigweed plant response rating,[4]; [12],100
same,"Plant response rating, Pigweed",[4]; [13],30
same,"Plant response rating, Pigweed",[4]; [14],80
same,"Plant response rating, Wheat",[5]; [11],0
same,Wheat plant response rating,[5]; [12],0
same,"Plant response rating, Wheat",[5]; [13],0
same,"Plant response rating, Wheat",[5]; [14],0
same,"Plant response rating, Corn",corn (Zea mays); [11],0
same,Corn plant response rating,corn (Zea mays); [12],0
same,"Plant response rating, Corn",corn (Zea mays); [13],0
same,"Plant response rating, Corn",corn (Zea mays); [14],0
same,"Plant response rating, Morningglory",[6]; [11],100
same,Morningglory plant response rating,[6]; [12],100
same,"Plant response rating, Morningglory",[6]; [13],0
same,"Plant response rating, Morningglory",[6]; [14],0
same,"Plant response rating, Velvetleaf",[7]; [11],100
same,Velvetleaf plant response rating,[7]; [12],100
same,"Plant response rating, Velvetleaf",[7]; [13],0
same,"Plant response rating, Velvetleaf",[7]; [14],60
same,"Plant response rating, Flood, Barnyardgrass",[8],0
same,"Plant response rating, Barnyardgrass",[8]; [15],0
same,"Plant response rating, Flood, Ducksalad",[9],90
same,"Plant response rating, Ducksalad",[9]; [15],70
same,"Plant response rating, Flood, Rice",rice (Oryza sativa),20
same,"Plant response rating, Rice",rice (Oryza sativa); [15],0
same,"Plant response rating, Flood, Sedge, Umbrella",[10],85
same,"Plant response rating, Sedge, Umbrella",[10]; [15],60
O=C(C1=C(O)C2CCC(C2)C1=O)c1cnc(-c2cc(F)cc(F)c2)n(-c2ccccc2)c1=O (stereo not shown) [Compound 246],"Plant response rating, Barnyardgrass",[1]; [11],70
same,Barnyardgrass plant response rating,[1]; [12],100
same,"Plant response rating, Barnyardgrass",[1]; [16],10
same,"Plant response rating, Barnyardgrass",[1]; [14],100
same,"Plant response rating, Foxtail, Giant",[2]; [17],80
same,"Foxtail, Giant plant response rating",[2]; [12],100
same,"Plant response rating, Foxtail, Giant",[2]; [16],90
same,"Plant response rating, Foxtail, Giant",[2]; [14],90
same,"Plant response rating, Crabgrass, Large",[3]; [11],70
same,"Crabgrass, Large plant response rating",[3]; [12],100
same,"Plant response rating, Crabgrass, Large",[3]; [16],100
same,"Plant response rating, Crabgrass, Large",[3]; [14],100
same,"Plant response rating, Pigweed",[4]; [17],90
same,Pigweed plant response rating,[4]; [12],100
same,"Plant response rating, Pigweed",[4]; [16],100
same,"Plant response rating, Pigweed",[4]; [14],100
same,"Plant response rating, Wheat",[5]; [17],0
same,Wheat plant response rating,[5]; [12],50
same,"Plant response rating, Wheat",[5]; [16],0
same,"Plant response rating, Wheat",[5]; [14],50
same,"Plant response rating, Corn",corn (Zea mays); [11],0
same,Corn plant response rating,corn (Zea mays); [12],90
same,"Plant response rating, Corn",corn (Zea mays); [16],0
same,"Plant response rating, Corn",corn (Zea mays); [14],50
same,"Plant response rating, Morningglory",[6]; [17],90
same,Morningglory plant response rating,[6]; [12],100
same,"Plant response rating, Morningglory",[6]; [16],20
same,"Plant response rating, Morningglory",[6]; [14],60
same,"Plant response rating, Velvetleaf",[7]; [17],100
same,Velvetleaf plant response rating,[7]; [12],100
same,"Plant response rating, Velvetleaf",[7]; [16],90
same,"Plant response rating, Velvetleaf",[7]; [14],100
same,"Plant response rating, Flood, Barnyardgrass",[8],60
same,"Plant response rating, Barnyardgrass",[8]; [15],0
same,"Plant response rating, Barnyardgrass",[8]; [18],20
same,Barnyardgrass plant response rating,[8],0
same,"Plant response rating, Flood, Ducksalad",[9],100
same,"Plant response rating, Ducksalad",[9]; [15],100
same,"Plant response rating, Ducksalad",[9]; [18],100
same,Ducksalad plant response rating,[9],85
same,"Plant response rating, Flood, Rice",rice (Oryza sativa),65
same,"Plant response rating, Rice",rice (Oryza sativa); [15],30
same,"Plant response rating, Rice",rice (Oryza sativa); [18],65
same,Rice plant response rating,rice (Oryza sativa),0
same,"Plant response rating, Flood, Sedge, Umbrella",[10],100
same,"Plant response rating, Sedge, Umbrella",[10]; [15],85
same,"Plant response rating, Sedge, Umbrella",[10]; [18],100
same,"Sedge, Umbrella plant response rating",[10],0
Cc1cc(-n2c(-c3cccc(Br)c3)ncc(C(=O)C3=C(O)CCCC3=O)c2=O)ccc1F [Compound 132],"Plant response rating, Barnyardgrass",[1]; [11],10
same,"Plant response rating, Barnyardgrass",[1]; [19],90
same,"Plant response rating, Barnyardgrass",[1]; [13],10
same,"Plant response rating, Barnyardgrass",[1]; [20],100
same,"Plant response rating, Foxtail, Giant",[2]; [11],0
same,"Plant response rating, Foxtail, Giant",[2]; [19],70
same,"Plant response rating, Foxtail, Giant",[2]; [13],20
same,"Plant response rating, Foxtail, Giant",[2]; [20],90
same,"Plant response rating, Crabgrass, Large",[3]; [11],20
same,"Plant response rating, Crabgrass, Large",[3]; [19],70
same,"Plant response rating, Crabgrass, Large",[3]; [13],50
same,"Plant response rating, Crabgrass, Large",[3]; [20],100
same,"Plant response rating, Pigweed",[4]; [11],60
same,"Plant response rating, Pigweed",[4]; [19],90
same,"Plant response rating, Pigweed",[4]; [13],10
same,"Plant response rating, Pigweed",[4]; [20],80
same,"Plant response rating, Wheat",[5]; [11],0
same,"Plant response rating, Wheat",[5]; [19],30
same,"Plant response rating, Wheat",[5]; [13],0
same,"Plant response rating, Wheat",[5]; [20],10
same,"Plant response rating, Corn",corn (Zea mays); [11],0
same,"Plant response rating, Corn",corn (Zea mays); [19],40
same,"Plant response rating, Corn",corn (Zea mays); [13],0
same,"Plant response rating, Corn",corn (Zea mays); [20],20
same,"Plant response rating, Morningglory",[6]; [11],90
same,"Plant response rating, Morningglory",[6]; [19],90
same,"Plant response rating, Morningglory",[6]; [13],0
same,"Plant response rating, Morningglory",[6]; [20],30
same,"Plant response rating, Velvetleaf",[7]; [11],100
same,"Plant response rating, Velvetleaf",[7]; [19],100
same,"Plant response rating, Velvetleaf",[7]; [13],50
same,"Plant response rating, Velvetleaf",[7]; [20],80
same,"Plant response rating, Flood, Barnyardgrass",[8],30
same,"Plant response rating, Barnyardgrass",[8]; [15],0
same,"Plant response rating, Barnyardgrass",[8]; [18],0
same,Barnyardgrass plant response rating,[8],0
same,"Plant response rating, Flood, Ducksalad",[9],100
same,"Plant response rating, Ducksalad",[9]; [15],50
same,"Plant response rating, Ducksalad",[9]; [18],80
same,Ducksalad plant response rating,[9],0
same,"Plant response rating, Flood, Rice",rice (Oryza sativa),0
same,"Plant response rating, Rice",rice (Oryza sativa); [15],0
same,"Plant response rating, Rice",rice (Oryza sativa); [18],0
same,Rice plant response rating,rice (Oryza sativa),0
same,"Plant response rating, Flood, Sedge, Umbrella",[10],100
same,"Plant response rating, Sedge, Umbrella",[10]; [15],0
same,"Plant response rating, Sedge, Umbrella",[10]; [18],60
same,"Sedge, Umbrella plant response rating",[10],0
